Experimental data from the NIST ThermoML archive (doi:10.1016/j.jct.2016.04.014).
± gives the expanded uncertainty stated by the source.

Details: Liquid, Vibrating tube method

CCCCCCCC [octane] showed a mass density (288.15 K, 100 kPa) of 706.5 ± 1.7 kg/m3, a mass density (288.15 K, 1000 kPa) of 707.2 ± 1.7 kg/m3 and a mass density (288.15 K, 5000 kPa) of 710.3 ± 1.7 kg/m3. The mass density (288.15 K, 10000 kPa) was 714.1 ± 1.7 kg/m3, the mass density (288.15 K, 15000 kPa) was 717.7 ± 1.7 kg/m3 and the mass density (288.15 K, 20000 kPa) was 721.2 ± 1.8 kg/m3. The mass density (288.15 K, 25000 kPa) was 724.5 ± 1.8 kg/m3, the mass density (288.15 K, 30000 kPa) was 727.7 ± 1.8 kg/m3 and the mass density (288.15 K, 35000 kPa) was 730.8 ± 1.8 kg/m3. For the same compound, the mass density (288.15 K, 40000 kPa) was 733.7 ± 1.8 kg/m3, the mass density (288.15 K, 45000 kPa) was 736.5 ± 1.8 kg/m3 and the mass density (288.15 K, 50000 kPa) was 739.2 ± 1.8 kg/m3. The mass density (288.15 K, 55000 kPa) was 741.7 ± 1.8 kg/m3, the mass density (288.15 K, 60000 kPa) was 744.1 ± 1.9 kg/m3 and the mass density (293.15 K, 100 kPa) was 702.5 ± 1.7 kg/m3. For the same compound, the mass density (293.15 K, 101 kPa) was 702.58 ± 0.25 kg/m3, the mass density (293.15 K, 1000 kPa) was 703.2 ± 1.7 kg/m3 and the mass density (293.15 K, 5000 kPa) was 706.4 ± 1.7 kg/m3. The mass density (293.15 K, 10000 kPa) was 710.3 ± 1.7 kg/m3, the mass density (293.15 K, 15000 kPa) was 714 ± 1.7 kg/m3 and the mass density (293.15 K, 20000 kPa) was 717.6 ± 1.8 kg/m3. It also gave a mass density (293.15 K, 25000 kPa) of 721 ± 1.8 kg/m3, a mass density (293.15 K, 30000 kPa) of 724.3 ± 1.8 kg/m3 and a mass density (293.15 K, 35000 kPa) of 727.5 ± 1.8 kg/m3. It also gave a mass density (293.15 K, 40000 kPa) of 730.5 ± 1.8 kg/m3, a mass density (293.15 K, 45000 kPa) of 733.3 ± 1.8 kg/m3 and a mass density (293.15 K, 50000 kPa) of 736 ± 1.8 kg/m3. For the same compound, the mass density (293.15 K, 55000 kPa) was 738.6 ± 1.9 kg/m3, the mass density (293.15 K, 60000 kPa) was 741 ± 1.9 kg/m3 and the mass density (298.15 K, 100 kPa) was 698.5 ± 1.7 kg/m3. The mass density (298.15 K, 1000 kPa) was 699.2 ± 1.7 kg/m3, the mass density (298.15 K, 5000 kPa) was 702.5 ± 1.7 kg/m3 and the mass density (298.15 K, 10000 kPa) was 706.5 ± 1.7 kg/m3. The mass density (298.15 K, 15000 kPa) was 710.3 ± 1.7 kg/m3, the mass density (298.15 K, 20000 kPa) was 714 ± 1.8 kg/m3 and the mass density (298.15 K, 25000 kPa) was 717.6 ± 1.8 kg/m3. It also gave a mass density (298.15 K, 30000 kPa) of 720.9 ± 1.8 kg/m3, a mass density (298.15 K, 35000 kPa) of 724.1 ± 1.8 kg/m3 and a mass density (298.15 K, 40000 kPa) of 727.2 ± 1.8 kg/m3. It also gave a mass density (298.15 K, 45000 kPa) of 730.1 ± 1.8 kg/m3, a mass density (298.15 K, 50000 kPa) of 732.9 ± 1.8 kg/m3 and a mass density (298.15 K, 55000 kPa) of 735.5 ± 1.9 kg/m3. For the same compound, the mass density (298.15 K, 60000 kPa) was 738 ± 1.9 kg/m3, the mass density (303.15 K, 100 kPa) was 694.4 ± 1.7 kg/m3 and the mass density (303.15 K, 101 kPa) was 694.48 ± 0.25 kg/m3. It also gave a mass density (303.15 K, 1000 kPa) of 695.2 ± 1.7 kg/m3, a mass density (303.15 K, 5000 kPa) of 698.6 ± 1.7 kg/m3 and a mass density (303.15 K, 10000 kPa) of 702.7 ± 1.7 kg/m3. For the same compound, the mass density (303.15 K, 15000 kPa) was 706.7 ± 1.7 kg/m3, the mass density (303.15 K, 20000 kPa) was 710.5 ± 1.8 kg/m3 and the mass density (303.15 K, 25000 kPa) was 714.1 ± 1.8 kg/m3. For the same compound, the mass density (303.15 K, 30000 kPa) was 717.5 ± 1.8 kg/m3, the mass density (303.15 K, 35000 kPa) was 720.9 ± 1.8 kg/m3 and the mass density (303.15 K, 40000 kPa) was 724 ± 1.8 kg/m3. For the same compound, the mass density (303.15 K, 45000 kPa) was 727 ± 1.8 kg/m3 and the mass density (303.15 K, 50000 kPa) was 729.8 ± 1.8 kg/m3.
